Active and inactive are the calls of the source. The rule behind the calls is not given here. Square brackets hold non-standard residues; d marks the D form. Peptide text beside a SMILES is read from it. * marks the point of attachment. hMet = CSCCC[C@H](N)C(=O)O; X1 = CC(C)[C@H](N*)B(O)O
Legend:
Serine protease HTRA1 [1] = biological target: T1, Serine protease HTRA1 (Homo sapiens, UniProt Q92743); assay: Inhibition of HTRA1 (unknown origin)
[2] = biological target: Kallikrein-7 (Homo sapiens) (UniProt P49862); assay: Inhibition of kallikrein-7 (unknown origin) at 1 uM
Sequence of Kallikrein-7 (Homo sapiens) (P49862 30-253 limits assumed): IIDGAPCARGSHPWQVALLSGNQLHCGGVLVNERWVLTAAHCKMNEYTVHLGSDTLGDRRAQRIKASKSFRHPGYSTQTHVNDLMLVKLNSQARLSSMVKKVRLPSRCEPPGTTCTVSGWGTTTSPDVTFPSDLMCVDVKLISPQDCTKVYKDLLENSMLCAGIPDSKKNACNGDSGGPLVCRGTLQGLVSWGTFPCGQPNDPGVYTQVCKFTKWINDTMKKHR

Caspase-6 (Homo sapiens) = biological target: T2, Caspase-6 (Homo sapiens) (UniProt P55212); assay: Inhibition of Caspase-6 (unknown origin) at 1 uM
T2 sequence (whole entry): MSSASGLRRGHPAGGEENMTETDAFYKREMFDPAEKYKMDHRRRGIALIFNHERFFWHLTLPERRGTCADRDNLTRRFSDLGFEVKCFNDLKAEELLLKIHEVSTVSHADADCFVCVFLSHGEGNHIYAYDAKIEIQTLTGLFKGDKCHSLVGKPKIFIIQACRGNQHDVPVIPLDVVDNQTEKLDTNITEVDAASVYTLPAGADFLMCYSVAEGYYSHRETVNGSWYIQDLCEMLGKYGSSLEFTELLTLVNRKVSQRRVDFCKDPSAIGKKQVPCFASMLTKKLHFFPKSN

[3] = biological target: Chymotrypsin (Homo sapiens) (UniProt Q99895+P17538+P40313+Q6GPI1); assay: Inhibition of chymotrypsin (unknown origin) at 1 uM; assay type: protein assay
Caspase-9 (Homo sapiens) = biological target: T3, Caspase-9 (Homo sapiens) (UniProt P55211); assay: Inhibition of Caspase-9 (unknown origin) at 1 uM
T3 sequence (whole entry): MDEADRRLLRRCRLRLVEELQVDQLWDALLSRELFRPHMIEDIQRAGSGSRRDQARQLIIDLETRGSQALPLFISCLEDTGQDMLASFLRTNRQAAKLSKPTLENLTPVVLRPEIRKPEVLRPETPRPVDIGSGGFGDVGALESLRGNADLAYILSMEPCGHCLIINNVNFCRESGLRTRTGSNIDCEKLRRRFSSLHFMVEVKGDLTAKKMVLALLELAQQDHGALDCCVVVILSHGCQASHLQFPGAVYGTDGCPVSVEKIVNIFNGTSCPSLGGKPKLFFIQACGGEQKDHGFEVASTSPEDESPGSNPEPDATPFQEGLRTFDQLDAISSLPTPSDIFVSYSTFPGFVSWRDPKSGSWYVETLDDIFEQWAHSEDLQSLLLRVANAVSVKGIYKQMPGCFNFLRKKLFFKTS

Serine protease HTRA1 [4] = biological target: T1, Serine protease HTRA1; assay: Inhibition of HTRA1 (unknown origin) assessed as residual activity at 1 uM relative to control

T1 sequence (Q92743 whole entry): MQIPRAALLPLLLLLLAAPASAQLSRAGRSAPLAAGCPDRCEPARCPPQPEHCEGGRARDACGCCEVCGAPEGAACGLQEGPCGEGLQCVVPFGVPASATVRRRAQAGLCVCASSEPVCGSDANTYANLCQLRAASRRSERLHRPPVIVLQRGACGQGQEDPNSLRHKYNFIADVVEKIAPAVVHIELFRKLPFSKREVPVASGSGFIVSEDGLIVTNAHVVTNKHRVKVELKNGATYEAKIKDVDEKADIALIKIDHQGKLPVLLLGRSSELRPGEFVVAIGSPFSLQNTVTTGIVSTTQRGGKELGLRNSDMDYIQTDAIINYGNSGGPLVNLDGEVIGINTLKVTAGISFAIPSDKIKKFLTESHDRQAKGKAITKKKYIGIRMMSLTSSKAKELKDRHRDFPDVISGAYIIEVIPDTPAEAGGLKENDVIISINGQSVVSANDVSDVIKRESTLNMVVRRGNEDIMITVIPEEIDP

IC50 (Serine protease HTRA1 [1]) | SMILES | also measured
73 nM | CC(C)C[C@H](NC(=O)[C@H](Cc1ccc(Cl)cc1)NC(=O)OCc1ccccc1)C(=O)N[C@H](B(O)O)C(C)C | 
411 nM | CC(C)C[C@H](NC(=O)[C@H](Cc1ccccc1)NC(=O)OCc1ccccc1)C(=O)N[C@H](B(O)O)C(C)C | 
1920 nM | CCCCC[C@H](NC(=O)OCc1ccccc1)C(=O)N[C@@H](CC(C)C)C(=O)N[C@H](B(O)O)C(C)C | 
2600 nM | CSCCC[C@H](NC(=O)[C@@H]1CCCN1C(=O)[C@@H](N)CC(=O)O)C(=O)N[C@@H](Cc1ccccc1)C(=O)N[C@@H](CCCCN)C(=O)N[C@@H](CC(C)C)C(=O)N[C@H](B(O)O)C(C)C (H-DP[hMet]FKL-X1) | 
466 nM | CC(C)C[C@H](NC(=O)[C@H](CC1CCCCC1)NC(=O)OCc1ccccc1)C(=O)N[C@H](B(O)O)C(C)C | 
13 nM | CC(C)C[C@H](NC(=O)[C@H](Cc1cccc(Cl)c1)NC(=O)C(C)(C)Cc1ccccc1)C(=O)N[C@H](B(O)O)C1CCC1 | inhibition [2]: inactive; inhibition (Caspase-6 (Homo sapiens)): inactive; inhibition [3]: inactive; inhibition (Caspase-9 (Homo sapiens)): inactive; Activity (Serine protease HTRA1 [4]): 0%
495 nM | CC(C)C[C@H](NC(=O)[C@H](Cc1cccc(Cl)c1)NC(=O)NCc1ccccc1)C(=O)N[C@H](B(O)O)C(C)C | 
4900 nM | CC(C)C[C@H](NC(=O)[C@H](Cc1cccc(Cl)c1)NCCCc1ccccc1)C(=O)N[C@H](B(O)O)C(C)C | 
1540 nM | CC(C)C[C@H](NC(=O)[C@H](Cc1cc[n+]([O-])cc1)NC(=O)OCc1ccccc1)C(=O)N[C@H](B(O)O)C(C)C | 
11 nM | CC(C)C[C@H](NC(=O)[C@H](Cc1cccc(Cl)c1)NC(=O)C(C)(C)Cc1ccccc1)C(=O)N[C@H](B(O)O)C(C)C | 
104 nM | CC(C)C[C@H](NC(=O)[C@H](Cc1cccc(Cl)c1)NC(=O)CCc1ccccc1)C(=O)N[C@H](B(O)O)C(C)C | 
10 nM | CC(C)C[C@H](NC(=O)[C@H](Cc1cccc(Cl)c1)NC(=O)OCc1ccccc1)C(=O)N[C@H](B(O)O)C(C)C | inhibition [2]: inactive; inhibition (Caspase-6 (Homo sapiens)): inactive; inhibition [3]: inactive; inhibition (Caspase-9 (Homo sapiens)): inactive; Activity (Serine protease HTRA1 [4]): 0%
45 nM | Cc1cccc(C[C@H](NC(=O)OCc2ccccc2)C(=O)N[C@@H](CC(C)C)C(=O)N[C@H](B(O)O)C(C)C)c1 | 
654 nM | CC(C)C[C@H](NC(=O)[C@H](Cc1ccc[n+]([O-])c1)NC(=O)OCc1ccccc1)C(=O)N[C@H](B(O)O)C(C)C | 
17 nM | CC(C)C[C@H](NC(=O)[C@H](Cc1cccc(Br)c1)NC(=O)OCc1ccccc1)C(=O)N[C@H](B(O)O)C(C)C | 
88 nM | CC(C)C[C@H](NC(=O)[C@H](Cc1cccc(F)c1)NC(=O)OCc1ccccc1)C(=O)N[C@H](B(O)O)C(C)C | 
15300 nM | CC(C)C[C@H](NC(=O)[C@H](CCCCN)NC(=O)OCc1ccccc1)C(=O)N[C@H](B(O)O)C(C)C | 
